Data on one molecule can be found in patent publication US11420966B2 (ACLARIS THERAPEUTICS, INC., priority 2019, dated 2022).

One assay addresses JAK1 (Homo sapiens (Human), UniProt P23458). As to the kind of experiment: JAK1 enzyme activity assay (Thermo Fisher SelectScreen, Z-lyte). Format: biochemical. The note with it: read-out: JAK1 Inhibition IC50. The method in brief:
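Z-lyte assay with 21.2-91.5 ng JAK and […] Tyr 06 in 50 mM HEPES pH 7.0, 10 mM MgCl2, 1 mM EGTA, 0.01% BRIJ-35; 1 h kinase reaction, then development reagent. 11-point dose-response from […] to 0.34 nM, 2% DMSO vehicle; IC50 from 4-parameter logistic fit of emission ratio.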

Assay [1] relates to IL-2 stimulated STAT5 phosphorylation on Tyr694 (JAK1/3). As to the kind of experiment: JAK1/3 cellular target modulation: IL-2 stimulated phospho-STAT5 in PBMC. The note with it: human PBMC, IL-2 25 ng/ml; read-out: IL2-STAT5 IC50. Format: cell-based. Summed up: (§1)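 Thawed human PBMC (200,000/well, RPMI/10% FBS) were preincubated with compound for 1 h at 37 °C, added from 10× stocks in 1% DMSO. Stimulation and read-out: IL-2 25 ng/ml, 5 min, pSTAT5 by MSD; IL-12 1.7 ng/ml, 25 min, pSTAT4 by MSD; IFNγ 10 ng/ml, 10 min, pSTAT1 by sandwich ELISA.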

In another assay the target is Tyk-2 (Homo sapiens (Human), UniProt P29597). In words: Tyk-2 enzyme activity assay (Thermo Fisher SelectScreen, Z-lyte). Format: biochemical. The note with it: read-out: Tyk-2 Inhibition IC50. The method in brief:
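Z-lyte FRET assay: 3.75–15 ng TYK2 with […] Tyr 03 peptide in HEPES pH 7.0, MgCl2, EGTA, BRIJ-35; 1 h reaction, then development reagent. 11-point dose-response, 2% DMSO; IC50 via 4-parameter fit of emission ratio, background without enzyme.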

The subject of assay [2] is IFNγ stimulated STAT1 phosphorylation on Tyr701 (JAK1/2). In words: JAK1/2 cellular target modulation: IFNγ stimulated phospho-STAT1 in PBMC. The class given is cell-based. The note with it: human PBMC, IFNγ 10 ng/ml; read-out: Infγ-STAT1 IC50. Summed up: as §1
The target of a further assay is JAK3 (a.a. 781-1124) (Homo sapiens (Human), UniProt P52333). In words: JAK3 enzyme activity assay (SRCtide phosphorylation, Caliper). The class given is biochemical. The note with it: 1 uM ATP; read-out: JAK3 Inhibition IC50.
Chain of JAK3 (a.a. 781-1124) (P52333 781-1124): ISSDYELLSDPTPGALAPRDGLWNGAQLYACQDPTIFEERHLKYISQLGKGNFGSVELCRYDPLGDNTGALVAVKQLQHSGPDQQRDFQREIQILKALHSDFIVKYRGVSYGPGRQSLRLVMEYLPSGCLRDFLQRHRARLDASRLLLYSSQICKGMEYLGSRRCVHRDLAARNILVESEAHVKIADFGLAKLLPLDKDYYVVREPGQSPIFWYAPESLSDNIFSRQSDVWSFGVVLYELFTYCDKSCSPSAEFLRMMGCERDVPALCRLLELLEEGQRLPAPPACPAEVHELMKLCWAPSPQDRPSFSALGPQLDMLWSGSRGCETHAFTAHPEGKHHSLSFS

Chain of JAK1 (P23458 whole entry): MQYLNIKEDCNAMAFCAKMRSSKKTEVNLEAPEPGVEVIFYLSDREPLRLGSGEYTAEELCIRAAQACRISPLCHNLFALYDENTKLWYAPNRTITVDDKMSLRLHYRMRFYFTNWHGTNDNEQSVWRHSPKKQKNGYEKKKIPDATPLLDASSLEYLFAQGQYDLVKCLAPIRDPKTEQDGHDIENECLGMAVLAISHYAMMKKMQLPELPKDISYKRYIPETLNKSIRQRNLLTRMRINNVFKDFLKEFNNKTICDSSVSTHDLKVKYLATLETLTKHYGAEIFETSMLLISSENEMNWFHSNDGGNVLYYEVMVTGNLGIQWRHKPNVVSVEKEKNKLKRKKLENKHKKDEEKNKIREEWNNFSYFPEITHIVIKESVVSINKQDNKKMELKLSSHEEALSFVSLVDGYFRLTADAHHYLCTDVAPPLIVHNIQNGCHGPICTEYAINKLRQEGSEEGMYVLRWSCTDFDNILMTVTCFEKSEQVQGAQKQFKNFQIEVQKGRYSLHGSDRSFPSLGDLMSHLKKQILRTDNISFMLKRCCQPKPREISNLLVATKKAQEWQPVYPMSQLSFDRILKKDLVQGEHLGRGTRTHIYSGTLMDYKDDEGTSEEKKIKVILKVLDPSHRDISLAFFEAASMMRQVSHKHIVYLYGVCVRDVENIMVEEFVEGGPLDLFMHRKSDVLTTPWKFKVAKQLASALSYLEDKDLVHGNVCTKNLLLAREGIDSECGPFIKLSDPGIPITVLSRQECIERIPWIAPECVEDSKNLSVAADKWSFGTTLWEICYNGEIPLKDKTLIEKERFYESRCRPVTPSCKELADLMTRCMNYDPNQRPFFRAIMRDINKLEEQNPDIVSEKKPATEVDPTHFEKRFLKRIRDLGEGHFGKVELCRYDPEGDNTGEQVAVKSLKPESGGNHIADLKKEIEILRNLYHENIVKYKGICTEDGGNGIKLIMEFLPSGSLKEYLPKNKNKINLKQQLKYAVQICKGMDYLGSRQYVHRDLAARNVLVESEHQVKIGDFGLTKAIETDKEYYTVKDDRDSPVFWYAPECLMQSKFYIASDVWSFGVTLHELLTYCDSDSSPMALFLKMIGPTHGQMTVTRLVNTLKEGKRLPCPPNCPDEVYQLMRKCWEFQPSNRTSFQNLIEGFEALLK
Chain of Tyk-2 (P29597 whole entry): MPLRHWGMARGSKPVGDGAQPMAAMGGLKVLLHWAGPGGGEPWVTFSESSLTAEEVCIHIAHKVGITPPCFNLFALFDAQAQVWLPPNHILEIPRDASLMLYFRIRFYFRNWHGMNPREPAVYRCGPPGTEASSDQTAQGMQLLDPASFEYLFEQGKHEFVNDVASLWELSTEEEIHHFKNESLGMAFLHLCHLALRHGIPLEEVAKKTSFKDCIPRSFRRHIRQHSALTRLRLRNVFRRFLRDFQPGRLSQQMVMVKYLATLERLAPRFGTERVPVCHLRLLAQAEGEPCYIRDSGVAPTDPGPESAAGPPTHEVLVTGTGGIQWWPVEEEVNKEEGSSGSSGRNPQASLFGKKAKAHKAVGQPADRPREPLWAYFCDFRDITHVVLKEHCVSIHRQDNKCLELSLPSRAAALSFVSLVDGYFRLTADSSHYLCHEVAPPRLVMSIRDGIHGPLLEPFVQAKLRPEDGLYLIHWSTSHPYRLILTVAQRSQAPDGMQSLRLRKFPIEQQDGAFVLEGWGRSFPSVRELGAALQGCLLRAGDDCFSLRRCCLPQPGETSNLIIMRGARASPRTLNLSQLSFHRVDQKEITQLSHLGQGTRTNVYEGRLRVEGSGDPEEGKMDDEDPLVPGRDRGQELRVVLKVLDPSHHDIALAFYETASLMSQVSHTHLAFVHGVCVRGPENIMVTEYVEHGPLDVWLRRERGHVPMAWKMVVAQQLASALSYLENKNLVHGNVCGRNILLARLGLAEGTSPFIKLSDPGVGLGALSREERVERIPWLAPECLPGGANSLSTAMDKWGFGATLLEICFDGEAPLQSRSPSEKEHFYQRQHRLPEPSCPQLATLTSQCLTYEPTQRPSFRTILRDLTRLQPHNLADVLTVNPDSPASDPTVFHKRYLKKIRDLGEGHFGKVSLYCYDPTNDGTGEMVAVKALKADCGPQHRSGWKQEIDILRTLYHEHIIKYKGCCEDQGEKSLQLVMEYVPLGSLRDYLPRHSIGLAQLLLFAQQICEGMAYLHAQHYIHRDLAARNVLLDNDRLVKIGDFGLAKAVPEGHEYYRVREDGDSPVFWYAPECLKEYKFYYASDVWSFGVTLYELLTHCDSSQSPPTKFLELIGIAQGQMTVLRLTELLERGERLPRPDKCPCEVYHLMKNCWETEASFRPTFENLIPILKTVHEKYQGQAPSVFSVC

In general, IC50 refers to the midpoint of a concentration-inhibition curve. Consider `CNC(=O)c1coc(-c2cnc3[nH]ccc3c2N[C@@H]2C[C@H](C)CN(C(=O)CC#N)C2)n1` [Example 31, 2-(4-(((3R,5S)-1-(2-cyanoacetyl)-5-methylpiperidin-3-yl)amino)-1H-pyrrolo[2,3-b]pyridin-5-yl)-N-methyloxazole-4-carboxamide], for which the IC50 at JAK1 is ≤ 10 nM; in assay [1] it was ≤ 100 nM; at Tyk-2, ≤ 10 nM; in assay [2] it was ≤ 100 nM; at JAK3 (a.a. 781-1124) it was ≤ 10 nM.
